{"source": "Sander's compilation of Henry's law constants (doi:10.1021/es8005783)", "origin": "cited, not measured here"}
{"experiment": "Henry solubility constant Hcp at 298.15 K (mol/(m3 Pa))", "settings": "reference: Hilal et al. (2008); cited value"}
{"smiles": "FC(F)(F)C(F)(Cl)Cl", "note": "[1,1-dichlorotetrafluoroethane]", "Henry solubility constant Hcp": "7.5e-06"}
{"smiles": "ClC1=C(Cl)[C@]2(Cl)[C@@H]3[C@@H]4C[C@@H]([C@H]5O[C@@H]45)[C@@H]3[C@@]1(Cl)C2(Cl)Cl", "note": "[dieldrin]", "Henry solubility constant Hcp": 0.17}
{"smiles": "C=C(C)C(=O)OCC", "note": "[2-methyl-2-propenoic acid, ethyl ester]", "Henry solubility constant Hcp": 0.016}
{"smiles": "CCCCCCCCC(=O)O", "note": "[nonanoic acid]", "Henry solubility constant Hcp": 6.9}
{"smiles": "ClC(Cl)Br", "note": "[bromodichloromethane]", "Henry solubility constant Hcp": 0.0077}
{"smiles": "CCc1ccccc1CC", "note": "[1,2-diethylbenzene]", "Henry solubility constant Hcp": 0.0012}
{"smiles": "O=[N+]([O-])c1ccccc1", "note": "[nitrobenzene]", "Henry solubility constant Hcp": 0.42}
{"smiles": "CCCC(C)C", "note": "[2-methylpentane]", "Henry solubility constant Hcp": "6.2e-06"}
{"smiles": "CC(C)N", "note": "[2-propanamine]", "Henry solubility constant Hcp": 0.22}
{"smiles": "ClC(Cl)=C(Cl)C(Cl)=C(Cl)Cl", "note": "[hexachlorobutadiene]", "Henry solubility constant Hcp": 0.00097}
{"smiles": "BrC(Br)(Br)Br", "note": "[tetrabromomethane]", "Henry solubility constant Hcp": 0.02}
{"smiles": "ClC=CCCl", "note": "[1,3-dichloropropene]", "Henry solubility constant Hcp": 0.0058}
{"smiles": "C1=CCC=CC1", "note": "[1,4-cyclohexadiene]", "Henry solubility constant Hcp": 0.001}
{"smiles": "CCc1cccc(CC)c1", "note": "[1,3-diethylbenzene]", "Henry solubility constant Hcp": 0.0038}
{"smiles": "CCC(C)N", "note": "(stereo not drawn) [2-butanamine]", "Henry solubility constant Hcp": 0.065}
{"smiles": "CC(C)CN", "note": "[2-methyl-1-propanamine]", "Henry solubility constant Hcp": 0.72}
{"smiles": "FC(F)(Cl)Cl", "note": "[dichlorodifluoromethane]", "Henry solubility constant Hcp": "3.6e-05"}
{"smiles": "FC(F)(F)Cl", "note": "[chlorotrifluoromethane]", "Henry solubility constant Hcp": "7.2e-06"}
{"smiles": "Cc1c(COC(=O)[C@@H]2[C@H](/C=C(\\Cl)C(F)(F)F)C2(C)C)cccc1-c1ccccc1", "note": "[bifenthrin]", "Henry solubility constant Hcp": 9.9}
{"smiles": "ClC1=C(Cl)[C@]2(Cl)[C@H]3[C@H]([C@@H]4C=C[C@H]3C4)[C@@]1(Cl)C2(Cl)Cl", "note": "[aldrin]", "Henry solubility constant Hcp": 0.02}
{"smiles": "ClC1=C(Cl)C2(Cl)C3C4OC4C(Cl)C3C1(Cl)C2(Cl)Cl", "note": "(stereo not drawn) [heptachlorepoxide]", "Henry solubility constant Hcp": 0.54}
{"smiles": "CCCN(CCC)CCC", "note": "[N,N-dipropyl-1-propanamine]", "Henry solubility constant Hcp": 0.026}
{"smiles": "COCC(C)O", "note": "(stereo not drawn) [1-methoxy-2-propanol]", "Henry solubility constant Hcp": 11}
